Measured values: PubChem BioAssay AID296 (DTP/NCI, 2004)
Records with an inconclusive call do not appear.

Test system: MX-1 breast xenograft, nude mice, tumor weight T/C
Experiment: NCI In Vivo Anticancer Drug Screen. Data for tumor model Human Mammary Carcinoma MX-1 Xenograft (intrarenal inoculation) in NU/NU Swiss (nude) mice
Conditions: endpoint: mean tumor weight change, higher = larger tumour
Method in brief: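 Mice carrying the implanted tumor receive either test agent or vehicle. Tumor size or survival is then recorded for both groups. Results are stated as the treated-to-control quotient.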

[1] = dose: 100.0 mg/kg/injection, schedule: Q01DX010 (sc), vehicle: saline with Tween-80
[2] = dose: 200.0 mg/kg/injection, schedule: Q01DX010 (sc), vehicle: saline with Tween-80
[3] = dose: 200.0 mg/kg/injection, schedule: Q01DX010 (sc), vehicle: saline
[4] = dose: 150.0 mg/kg/injection, schedule: Q04DX003 (sc), vehicle: saline with Tween-80
[5] = dose: 300.0 mg/kg/injection, schedule: Q04DX003 (sc), vehicle: saline with Tween-80
[6] = dose: 400.0 mg/kg/injection, schedule: Q01DX010 (sc), vehicle: saline with Tween-80
[7] = dose: 800.0 mg/kg/injection, schedule: Q01DX010 (sc), vehicle: saline with Tween-80

C1OC1CO[C@@H]1CO[C@H]2[C@@H]1OC[C@H]2OCC1CO1 (stereo partly specified)
T/C (dose: 50.0 mg/kg/injection, schedule: Q01DX010 (sc), vehicle: saline with Tween-80): 45 % of control | T/C [1]: 112 % of control | T/C [2]: 24 % of control

O=C(O)Cc1cccc2c(=O)cc(-c3ccccc3)oc12
T/C (dose: 100.0 mg/kg/injection, schedule: Q04DX003 (ip), vehicle: suspension in saline): 75 % of control

N/C=N/O
T/C (dose: 100.0 mg/kg/injection, schedule: Q01DX010 (sc), vehicle: saline): 107 % of control | T/C [3]: 53 % of control | T/C (dose: 400.0 mg/kg/injection, schedule: Q01DX010 (sc), vehicle: saline): 81 % of control

CN=C(N)N/N=C(\C)c1ccc2oc3ccc(/C(C)=N/NC(N)=NC)cc3c2c1
T/C (dose: 75.0 mg/kg/injection, schedule: Q04DX003 (sc), vehicle: saline with Tween-80): 72 % of control | T/C [4]: 86 % of control | T/C [5]: 80 % of control

CS(=O)(=O)Nc1ccc(C(=O)CCN2CCCCCC2)cc1
T/C [4]: 101 % of control | T/C [5]: 70 % of control

[N-]=[N+]=C1N=CN=C1c1ncn[nH]1
T/C (dose: 12.5 mg/kg/injection, schedule: Q01DX010 (sc), vehicle: Klucel (hydroxypropylcellulose) (HPC)): 121 % of control | T/C (dose: 25.0 mg/kg/injection, schedule: Q01DX010 (sc), vehicle: Klucel (hydroxypropylcellulose) (HPC)): 76 % of control

COc1cc(C[C@H]2c3cc(OC)c(OC)cc3CCN2C)c(Oc2cc3c(cc2OC)-c2c(OC)c(OC)cc4c2[C@H](C3)N(C)CC4)cc1OC
T/C [1]: 95 % of control | T/C [2]: 67 % of control | T/C [6]: 75 % of control | T/C [7]: 71 % of control

Cc1ccccc1SSc1ccccc1C
T/C [2]: 88 % of control | T/C [6]: 96 % of control | T/C [7]: 91 % of control

CC1=CC2c3cccc4[nH]cc(c34)CC2N(C)C1 (stereo unspecified)
T/C (dose: 12.5 mg/kg/injection, schedule: Q04DX003 (sc), vehicle: suspension in saline): 153 % of control

O=C(O)c1c2c(nc3ccccc13)Cc1ccccc1-2
T/C (dose: 25.0 mg/kg/injection, schedule: Q01DX010 (sc), vehicle: water): 108 % of control | T/C (dose: 200.0 mg/kg/injection, schedule: Q01DX010 (sc), vehicle: water): 46 % of control

CC(=O)OCC1(C)NC(=O)c2ccccc2O1 (stereo unspecified)
T/C [5]: 108 % of control | T/C (dose: 600.0 mg/kg/injection, schedule: Q04DX003 (sc), vehicle: saline with Tween-80): 108 % of control | T/C (dose: 1200.0 mg/kg/injection, schedule: Q04DX003 (sc), vehicle: saline with Tween-80): 156 % of control | T/C (dose: 2400.0 mg/kg/injection, schedule: Q04DX003 (sc), vehicle: saline with Tween-80): 85 % of control

CN(C)C=O
T/C [3]: 10 % of control | T/C (dose: 1896.0 mg/kg/injection, schedule: Q01DX010 (sc), vehicle: suspension in saline): 1 % of control | T/C (dose: 2844.0 mg/kg/injection, schedule: Q01DX010 (sc), vehicle: suspension in saline): -44 % of control | T/C (dose: 4266.0 mg/kg/injection, schedule: Q01DX010 (sc), vehicle: suspension in saline): -11 % of control

CCc1ccccc1N1CCN(C(=O)c2cc(OC)c(OC)c(OC)c2)CC1
T/C (dose: 100.0 mg/kg/injection, schedule: Q04DX003 (sc), vehicle: Klucel (hydroxypropylcellulose) (HPC)): 88 % of control | T/C (dose: 200.0 mg/kg/injection, schedule: Q04DX003 (sc), vehicle: Klucel (hydroxypropylcellulose) (HPC)): 86 % of control | T/C (dose: 400.0 mg/kg/injection, schedule: Q04DX003 (sc), vehicle: Klucel (hydroxypropylcellulose) (HPC)): 50 % of control

COc1c(CNC(=O)CCl)cc2[nH]c(C)cc2c1CNC(=O)CCl
T/C (dose: 250.0 mg/kg/injection, schedule: Q04DX003 (sc), vehicle: Klucel (hydroxypropylcellulose) (HPC)): 100 % of control | T/C (dose: 1000.0 mg/kg/injection, schedule: Q04DX003 (sc), vehicle: Klucel (hydroxypropylcellulose) (HPC)): 55 % of control | T/C (dose: 2000.0 mg/kg/injection, schedule: Q04DX003 (sc), vehicle: Klucel (hydroxypropylcellulose) (HPC)): 58 % of control

CCC[CH2][Hg][Cl]
T/C (dose: 9.38 mg/kg/injection, schedule: Q04DX003 (sc), vehicle: Klucel (hydroxypropylcellulose) (HPC)): 74 % of control | T/C (dose: 18.75 mg/kg/injection, schedule: Q04DX003 (sc), vehicle: Klucel (hydroxypropylcellulose) (HPC)): 61 % of control | T/C (dose: 37.5 mg/kg/injection, schedule: Q04DX003 (sc), vehicle: Klucel (hydroxypropylcellulose) (HPC)): 46 % of control
